Data: patent US11707440B2 (priority 2017, dated 2023)

Key:
[1] = test system: subjects with MDD at imminent risk for suicide; format: in vivo, human; conditions: esketamine 84 mg
Method: Transient blood pressure increases peaked for the esketamine group at approximately 40 minutes post dose with the maximum mean increases (across all dosing days) in systolic BP being 8.7 in the placebo group and 16.7 in the esketamine 84 mg group. The maximum mean increases (across all dosing days) in diastolic BP were 7.6 in the placebo group and 11.9 in the esketamine 84 mg group. […] See, FIGS. 46 and 47.

[2] = Pharmacokinetics of esketamine nasal spray, 14 Phase 1 studies (Example 10); conditions: human, plasma, inhaled or intranasal
Method: The data herein was assembled from 14 Phase 1 studies; each Phase 1 study was performed similarly to the study outlined in Example 9 in which the PK of esketamine was assessed.

[3] = test system: subjects with MDD at imminent risk for suicide; assay: MADRS suicide item, […]2001; format: in vivo, human; conditions: 84 mg, ITT Analysis Set
Excerpt: • a. Changes from baseline to Day 2 and Day 25 for the MADRS total score • b. Changes from baseline to Day 1 4-hours postdose, Day 2 and Day 25 for the MADRS Suicide Item • c. Changes from baseline to Day 1 4-hours postdose, Day 2, and Day 25 for the clinical global judgment of suicide risk from the Suicide Ideation and Behavior Assessment Tool (SIBAT) • d. Sustained response (Onset of Clinical Response) defined as at least 50% reduction from baseline in MADRS total score with onset on Day 1 that is maintained through the end of the double-blind phase (Day 25) • e. Changes from baseline to Day 1 4-hours postdose, Day 2, and Day 25 for the Beck Scale for Suicidal Ideation (BSS) • f. Changes from baseline to Day 1 4-hours postdose and Day 25 for the Beck Hopelessness Scale
Results of the change from baseline over time for the suicide item from the MADRS assessment can be found in Attachment 1.

SMILES: CN[C@]1(c2ccccc2Cl)CCCCC1=O [esketamine, (S)-2-(2-chlorophenyl)-2-(methylamino)cyclohexanone]
- Maximum mean increase in diastolic BP (across all dosing days) [1]: 11.9
- Maximum mean increase in systolic BP (across all dosing days) [1]: 16.7
- Time of return of blood pressure to normal range [1]: ≤ 2 hours post dose
- AUC ([2]; 28 mg): 128 to 183 ng·h/mL
- AUC ([2]; 56 mg): 216 to 317 ng·h/mL
- AUC ([2]; 84 mg): 310 to 489 ng·h/mL
- MADRS Suicide Item (Suicidal Thoughts), Change from Baseline, Med ([3]; Day 1(DB): 4H LOCF): −3.0
- MADRS Suicide Item (Suicidal Thoughts), Change from Baseline, Med ([3]; Day 1(DB): 4H): −3.0
- MADRS Suicide Item (Suicidal Thoughts), Change from Baseline, Med ([3]; Day 2(DB) LOCF): −3.0
- MADRS Suicide Item (Suicidal Thoughts), Change from Baseline, Med ([3]; Day 2(DB)): −3.0
- MADRS Suicide Item (Suicidal Thoughts), Change from Baseline, Med ([3]; Day 3(DB) LOCF): −4.0
- MADRS Suicide Item (Suicidal Thoughts), Change from Baseline, Med ([3]; Day 3(DB)): −4.0
- MADRS Suicide Item (Suicidal Thoughts), Change from Baseline, Med ([3]; Day 4(DB) LOCF): −4.0
- MADRS Suicide Item (Suicidal Thoughts), Change from Baseline, Med ([3]; Day 4(DB)): −4.0
- MADRS Suicide Item (Suicidal Thoughts), Change from Baseline, Med ([3]; Day 5(DB) LOCF): −4.0
- MADRS Suicide Item (Suicidal Thoughts), Change from Baseline, Med ([3]; Day 5(DB)): −4.0
- MADRS Suicide Item (Suicidal Thoughts), Change from Baseline, Med ([3]; Day 8(DB) LOCF): −4.0
- MADRS Suicide Item (Suicidal Thoughts), Change from Baseline, Med ([3]; Day 8(DB)): −4.0
- MADRS Suicide Item (Suicidal Thoughts), Change from Baseline, Med ([3]; Day 11(DB) LOCF): −4.0
- MADRS Suicide Item (Suicidal Thoughts), Change from Baseline, Med ([3]; Day 11(DB)): −4.0
- MADRS Suicide Item (Suicidal Thoughts), Change from Baseline, Med ([3]; Day 15(DB) LOCF): −4.0
- MADRS Suicide Item (Suicidal Thoughts), Change from Baseline, Med ([3]; Day 15(DB)): −4.0
- MADRS Suicide Item (Suicidal Thoughts), Change from Baseline, Med ([3]; Day 18(DB) LOCF): −4.0
- MADRS Suicide Item (Suicidal Thoughts), Change from Baseline, Med ([3]; Day 18(DB)): −4.0
- MADRS Suicide Item (Suicidal Thoughts), Change from Baseline, Med ([3]; Day 22(DB) LOCF): −4.0
- MADRS Suicide Item (Suicidal Thoughts), Change from Baseline, Med ([3]; Day 22(DB)): −4.0
- MADRS Suicide Item (Suicidal Thoughts), Change from Baseline, Med ([3]; Day 25(DB): 4H): −4.5
- MADRS Suicide Item (Suicidal Thoughts), Change from Baseline, Med ([3]; Day 25(DB): Predose LOCF): −4.0
- MADRS Suicide Item (Suicidal Thoughts), Change from Baseline, Med ([3]; Day 25(DB): Predose): −4.5
- MADRS Suicide Item (Suicidal Thoughts), Change from Baseline, Med ([3]; Day 32(FU) LOCF): −4.0
- MADRS Suicide Item (Suicidal Thoughts), Change from Baseline, Med ([3]; Day 32(FU)): −4.0
- MADRS Suicide Item (Suicidal Thoughts), Change from Baseline, Med ([3]; Day 39(FU) LOCF): −5.0
- MADRS Suicide Item (Suicidal Thoughts), Change from Baseline, Med ([3]; Day 39(FU)): −5.0
- MADRS Suicide Item (Suicidal Thoughts), Change from Baseline, Med ([3]; Day 46(FU) LOCF): −4.0
- MADRS Suicide Item (Suicidal Thoughts), Change from Baseline, Med ([3]; Day 46(FU)): −4.0
- MADRS Suicide Item (Suicidal Thoughts), Change from Baseline, Med ([3]; Day 53(FU) LOCF): −4.0
- MADRS Suicide Item (Suicidal Thoughts), Change from Baseline, Med ([3]; Day 53(FU)): −5.0
- MADRS Suicide Item (Suicidal Thoughts), Change from Baseline, Med ([3]; Day 67(FU) LOCF): −4.0
- MADRS Suicide Item (Suicidal Thoughts), Change from Baseline, Med ([3]; Day 67(FU)): −4.0
- MADRS Suicide Item (Suicidal Thoughts), Change from Baseline, Med ([3]; Day 81(FU)): −5.0
- MADRS Suicide Item (Suicidal Thoughts), Change from Baseline, Med ([3]; End Point(DB)): −4.0
- MADRS Suicide Item (Suicidal Thoughts), Change from Baseline, Med ([3]; End Point(FU)): −5.0
